Results as given in the NIST ThermoML archive (doi:10.1021/je0603325).
± gives the expanded uncertainty stated by the source.

Experiment: molar heat capacity at constant pressure; xn = mol fraction of the nth substance listed
Details: 101 kPa, Liquid, Small sample (50 mg) DSC

BrCCBr [1,2-dibromoethane] + CCCCCCC
molar heat capacity at constant pressure [J/K/mol]
Details | x1 = 0.1016 | x1 = 0.2016 | x1 = 0.2989 | x1 = 0.3977 | x1 = 0.4996 | x1 = 0.5991 | x1 = 0.6928 | x1 = 0.8022 | x1 = 0.9003 | x1 = 1
293.15 K | 213.58 ± 3.3 | 204.39 ± 3.2 | 196.15 ± 3 | 187.73 ± 2.9 | 179.31 ± 2.8 | 170.59 ± 2.6 | 162.47 ± 2.5 | 153.18 ± 2.4 | 144.9 ± 2.2 | 136.87 ± 2.1
294.15 K | 213.9 ± 3.3 | 204.73 ± 3.2 | 196.48 ± 3 | 188.03 ± 2.9 | 179.43 ± 2.8 | 170.8 ± 2.6 | 162.6 ± 2.5 | 153.26 ± 2.4 | 144.94 ± 2.2 | 136.9 ± 2.1
295.15 K | 214.26 ± 3.3 | 204.92 ± 3.2 | 196.66 ± 3 | 188.2 ± 2.9 | 179.65 ± 2.8 | 170.96 ± 2.6 | 162.81 ± 2.5 | 153.4 ± 2.4 | 145.07 ± 2.2 | 136.95 ± 2.1
296.15 K | 214.59 ± 3.3 | 205.3 ± 3.2 | 196.95 ± 3 | 188.51 ± 2.9 | 179.89 ± 2.8 | 171.13 ± 2.6 | 162.9 ± 2.5 | 153.53 ± 2.4 | 145.16 ± 2.2 | 136.99 ± 2.1
297.15 K | 214.9 ± 3.3 | 205.51 ± 3.2 | 197.29 ± 3.1 | 188.66 ± 2.9 | 180.09 ± 2.8 | 171.23 ± 2.6 | 163.05 ± 2.5 | 153.63 ± 2.4 | 145.24 ± 2.2 | 137.02 ± 2.1
298.15 K | 215.25 ± 3.3 | 205.83 ± 3.2 | 197.53 ± 3.1 | 188.94 ± 2.9 | 180.26 ± 2.8 | 171.4 ± 2.7 | 163.18 ± 2.5 | 153.72 ± 2.4 | 145.27 ± 2.2 | 137.04 ± 2.1
299.15 K | 215.55 ± 3.3 | 206.18 ± 3.2 | 197.72 ± 3.1 | 189.11 ± 2.9 | 180.39 ± 2.8 | 171.55 ± 2.7 | 163.24 ± 2.5 | 153.84 ± 2.4 | 145.33 ± 2.2 | 137.09 ± 2.1
300.15 K | 215.9 ± 3.3 | 206.45 ± 3.2 | 198 ± 3.1 | 189.43 ± 2.9 | 180.66 ± 2.8 | 171.77 ± 2.7 | 163.47 ± 2.5 | 153.91 ± 2.4 | 145.4 ± 2.2 | 137.11 ± 2.1
301.15 K | 216.32 ± 3.4 | 206.71 ± 3.2 | 198.31 ± 3.1 | 189.64 ± 2.9 | 180.79 ± 2.8 | 171.9 ± 2.7 | 163.5 ± 2.5 | 153.98 ± 2.4 | 145.47 ± 2.2 | 137.15 ± 2.1
302.15 K | 216.6 ± 3.4 | 207.03 ± 3.2 | 198.6 ± 3.1 | 189.82 ± 2.9 | 181.03 ± 2.8 | 172.01 ± 2.7 | 163.71 ± 2.5 | 154.13 ± 2.4 | 145.6 ± 2.3 | 137.2 ± 2.1
303.15 K | 216.95 ± 3.4 | 207.33 ± 3.2 | 198.77 ± 3.1 | 190.01 ± 2.9 | 181.17 ± 2.8 | 172.23 ± 2.7 | 163.89 ± 2.5 | 154.24 ± 2.4 | 145.65 ± 2.3 | 137.25 ± 2.1
304.15 K | 217.33 ± 3.4 | 207.57 ± 3.2 | 199.17 ± 3.1 | 190.33 ± 3 | 181.4 ± 2.8 | 172.31 ± 2.7 | 163.94 ± 2.5 | 154.32 ± 2.4 | 145.75 ± 2.3 | 137.29 ± 2.1
305.15 K | 217.7 ± 3.4 | 207.95 ± 3.2 | 199.39 ± 3.1 | 190.62 ± 3 | 181.54 ± 2.8 | 172.49 ± 2.7 | 164.06 ± 2.5 | 154.37 ± 2.4 | 145.77 ± 2.3 | 137.32 ± 2.1
306.15 K | 218.07 ± 3.4 | 208.28 ± 3.2 | 199.58 ± 3.1 | 190.75 ± 3 | 181.72 ± 2.8 | 172.71 ± 2.7 | 164.29 ± 2.5 | 154.55 ± 2.4 | 145.83 ± 2.3 | 137.39 ± 2.1
307.15 K | 218.39 ± 3.4 | 208.47 ± 3.2 | 199.9 ± 3.1 | 191.03 ± 3 | 181.95 ± 2.8 | 172.88 ± 2.7 | 164.4 ± 2.5 | 154.6 ± 2.4 | 145.96 ± 2.3 | 137.42 ± 2.1
308.15 K | 218.69 ± 3.4 | 208.8 ± 3.2 | 200.2 ± 3.1 | 191.31 ± 3 | 182.17 ± 2.8 | 173 ± 2.7 | 164.48 ± 2.5 | 154.68 ± 2.4 | 146.01 ± 2.3 | 137.49 ± 2.1
309.15 K | 219.1 ± 3.4 | 209.1 ± 3.2 | 200.37 ± 3.1 | 191.5 ± 3 | 182.37 ± 2.8 | 173.19 ± 2.7 | 164.7 ± 2.5 | 154.79 ± 2.4 | 146.13 ± 2.3 | 137.53 ± 2.1
310.15 K | 219.41 ± 3.4 | 209.5 ± 3.2 | 200.65 ± 3.1 | 191.66 ± 3 | 182.48 ± 2.8 | 173.29 ± 2.7 | 164.8 ± 2.5 | 154.9 ± 2.4 | 146.2 ± 2.3 | 137.6 ± 2.1
311.15 K | 219.69 ± 3.4 | 209.78 ± 3.2 | 200.99 ± 3.1 | 191.91 ± 3 | 182.68 ± 2.8 | 173.5 ± 2.7 | 164.88 ± 2.5 | 155 ± 2.4 | 146.21 ± 2.3 | 137.65 ± 2.1
312.15 K | 220.11 ± 3.4 | 210.1 ± 3.3 | 201.15 ± 3.1 | 192.12 ± 3 | 182.91 ± 2.8 | 173.69 ± 2.7 | 165.06 ± 2.6 | 155.16 ± 2.4 | 146.3 ± 2.3 | 137.71 ± 2.1
313.15 K | 220.35 ± 3.4 | 210.39 ± 3.3 | 201.51 ± 3.1 | 192.42 ± 3 | 183.06 ± 2.8 | 173.84 ± 2.7 | 165.16 ± 2.6 | 155.25 ± 2.4 | 146.43 ± 2.3 | 137.77 ± 2.1
